# What was measured:
# male Wistar rats = conditions: 10-25 mg/kg, literature; cited from earlier work
# [1] = system: male Syrian golden hamsters; assay: golden hamster seed finding model of anxiety; assay type: in vivo, Mesocricetus auratus
# Source text: Clavulanic acid (CLAV) is structurally similar to the beta-lactam antibiotics. A most robust and simple bioassay for screening beta-lactams for CNS activity is the golden hamster seed finding model of anxiety. Briefly, hamsters are deprived of food overnight. The following day they are exposed to the additional stress of being taken from their home cage and placed in a novel environment for a few minutes. This manipulation stimulates the release of the stress hormone cortisol (FIG. 13). During their absence from the home cage, sunflower seeds are hidden under the bedding in one of the corners. When returned to the home cage, hamsters routinely scramble along the walls for 1-2 min before settling down, locating and eating the seeds. However, animals treated with the benzodiazepine anxiolytic chlordiazepoxide find seeds in less than 10 sec.
# Male, Syrian golden hamsters (Mesocricetus auratus) (120-130 g) obtained from Harlan Sprague-Dawley Laboratories (Indianapolis, Ind.) were housed individually in Plexiglas cages (24 cm×24 cm×20 cm), maintained on a reverse light:dark cycle (14L: 10D; lights on at 19:00 hr) and provided food and water ad libitum. A range of concentrations of CLAV (saline vehicle, 0.1, 1.0, 10, 100 1,000 ng/kg) were tested in six groups of hamsters (4-8/group)(FIG. 1). All tests were conducted during the dark phase of the circadian cycle under dim red illumination. Prior to testing all animals were fasted for 20-24 hrs. Ninety min after intraperitoneal (IP) injection of drug, animals were taken from their home cage and placed into a holding cage for 2 min. During their absence, six sunflower seeds were buried under the bedding in one corner of their home cage. Animals were placed back into their home cage randomly facing any one of the empty corners and timed for their latency to find the seeds in a five min observation period. Latency times were analyzed with a one-way ANOVA followed by Scheffe's post hoc tests. Assumption of equal variances was tested (Hartley's F-max=2.1 p>0.05)
# It was hypothesized that CLAV functioned as an anxiolytic in the seed finding assay by blocking NAALADase activity in the brain. If this notion were true then it would be predicted that drugs known to block NAALADase should also enhance seed finding. To this end, animals were treated with N-acetyl-beta-aspartyl-glutamic acid (beta-NAAG), a competitive inhibitor of NAALADase (Serval et al., 1992) and tested in the seed finding model of anxiety. The study was similar to that outlined in Section I with one notable exception. […] Beta-NAAG (FW 304) was given in a dose of 3 ng in a volume of 1 μl saline ICV. The average adult hamster brain weights ca. 1.2 g of which 22% is extracellular fluid. The estimated beta-NAAG concentration was 11 ng/ml or 36 nM.
# Two groups of six animals each were fasted overnight as previously described and tested the following day. One group was treated with beta-NAAG and the other saline vehicle and one hr later timed for latency to find the hidden sunflower seeds. A Student t-test for unpaired data was used for statistical comparisons.
# male golden hamsters = assay: resident/intruder paradigm of offensive aggression; assay type: in vivo, hamster; conditions: 3 ng ICV, after the seed finding assay
# Source text: Agonistic behavior can be classified as either offensive or defensive aggression (Blanchard and Blanchard, 1977; Adams, […]; Albert and Walsh, 1984). Offensive aggression is characterized by an aggressor initiating an attack on an opponent; while, defensive aggression lacks active approach. Both types of aggression have their own unique neurobehavioral systems. The stimuli that elicit offensive and defense attack are different, as are the sequences of behaviors that accompany each agonistic response. […] Offensive aggression is easily studied using male golden hamsters tested in a resident/intruder paradigm, an established model of offensive aggression (Ferris and Potegal 1988) in the context of defending the home burrow. Placing an unfamiliar male hamster into the home cage of another male hamster elicits a well-defined sequence of agonistic behaviors from the resident that includes offensive aggression.
# Hamsters are nocturnal and as such all behavioral tests were performed during the first four hrs of the dark phase under dim red illumination. The resident was scored for offensive aggression, e.g., latency to bite the intruder, the total number of bites, total contact time with the intruder and flank marking over a 10 min test period (Ferris and Potegal, 1988). Flank marking is a form of olfactory communication in which a hamsters arches its back and rubs pheromone producing flank glands against objects in the environment (Johnston, 1986).
# Five male golden hamsters (130-140 g) were given IP injections of CLAV (200 μg/kg) and saline vehicle in a volume of ca. 0.2 ml. […] Vehicle and CLAV treatments were counter balanced and randomized so all five animals received each treatment separated by at least 48 hrs. Animals were tested 90 min after treatment over a 10 min observation period. Latencies and contact time were analyzed with a two-way ANOVA. Non-parametric data, i.e., number of bites and flank marks were analyzed by Wilcoxon matched-pairs signed-ranks test.
# The animals tested in this study were those used in Section IX. After the seed finding assay, beta-NAAG (n=6) and saline vehicle (n=6) treated animals remained in their home cage and were presented with a smaller, male intruder. The resident was scored for latency to bite, bites, contact time and flank marking over a 10 min observation period. Latency to bite and contact time between treatments were compared with Student t-tests. Non-parametric measures of bites and flank marks for beta-NAAG vs vehicle were compared with Mann-Whitney.
# [2] = in vivo; cited from earlier work
# [3] = system: neurogenic peptidases (e.g., NAALADases); assay: delivery of peptide directly into the brain, behavior; assay type: in vivo; conditions: effective amounts directly into the brain
compound,measurement,setting,value
"CNC1=Nc2ccc(Cl)cc2C(c2ccccc2)=[N+]([O-])C1 [CDP, Chlordiazepoxide]",motor activity,male Wistar rats,depresses motor activity
same,seed finding time,"[1]; benzodiazepine anxiolytic, dose not given",less than 10 sec
"CC(=O)N[C@@H](CC(=O)N[C@@H](CCC(=O)O)C(=O)O)C(=O)O [beta-NAAG, N-acetyl-beta-aspartyl-glutamic acid]","measures of offensive aggression (latency to bite, bites, contact time, flank marking) vs vehicle",male golden hamsters,no significant differences
same,passage of the blood-brain barrier,[2],does not readily cross the blood-brain barrier
same,difference in latency to find the seeds vs saline vehicle,"[1]; 3 ng in 1 μl ICV, one hr",significantly (p<0.001) different
Ala-D-γ-Glu-Lys-D-alanyl-D-alanine,behavioral characteristics compared with β-lactam compounds,[3],produced the same modified behavioral characteristics

# Source: patent US6610681B1, “Neurotherapeutic clavulanate composition and method” (Revaax Pharmaceuticals, LLC, priority 1999, dated 2003)
